Experimental data taken from paper PMC12171682, “Saarvienin A—A Novel Glycopeptide with Potent Activity against Drug‐Resistant Bacteria” (Angewandte Chemie (International Ed. in English), 2025).
In brackets after ≈: the same amount, converted by molar mass. Like-named read-outs stand apart in the source and are kept apart here.

Key:
E. faecalis ATCC 29212 = test: microbe, parasite or virus in culture; conditions: Enterococcus faecalis, ATCC29212, 24 h, read-out: MIC, E. faecalis ATCC29212
[1] = test system: vancomycin‐resistant E. faecium clinical isolates with reduced susceptibility to daptomycin (n = 26); test: microbe, parasite or virus in culture; conditions: Enterococcus faecium; for MIC: 24 h; for MIC50 / MIC90: VRE
[2] = test system: vancomycin‐resistant E. faecium clinical isolates with reduced susceptibility to daptomycin (n = 26); conditions: 26 VRE E. faecium clinical isolates; broth microdilution, MHB II; daptomycin with 50 µg/mL Ca2+; mean of two independent experiments
[3] = read-out: MIC, Enterococcus faecium isolate 1
[4] = read-out: MIC, Enterococcus faecium isolate 2
[5] = read-out: MIC, Enterococcus faecium isolate 3
[6] = read-out: MIC, Enterococcus faecium isolate 4
[7] = read-out: MIC, Enterococcus faecium isolate 5
[8] = read-out: MIC, Enterococcus faecium isolate 6
[9] = read-out: MIC, Enterococcus faecium isolate 7
[10] = read-out: MIC, Enterococcus faecium isolate 8
[11] = read-out: MIC, Enterococcus faecium isolate 9
[12] = read-out: MIC, Enterococcus faecium isolate 10
[13] = read-out: MIC, Enterococcus faecium isolate 11
[14] = read-out: MIC, Enterococcus faecium isolate 12
[15] = read-out: MIC, Enterococcus faecium isolate 13
[16] = read-out: MIC, Enterococcus faecium isolate 14
[17] = read-out: MIC, Enterococcus faecium isolate 15
[18] = read-out: MIC, Enterococcus faecium isolate 16
[19] = read-out: MIC, Enterococcus faecium isolate 17
[20] = read-out: MIC, Enterococcus faecium isolate 18
[21] = read-out: MIC, Enterococcus faecium isolate 19
[22] = read-out: MIC, Enterococcus faecium isolate 20
[23] = read-out: MIC, Enterococcus faecium isolate 21
[24] = read-out: MIC, Enterococcus faecium isolate 22
[25] = read-out: MIC, Enterococcus faecium isolate 23
[26] = read-out: MIC, Enterococcus faecium isolate 24
[27] = read-out: MIC, Enterococcus faecium isolate 25
[28] = read-out: MIC, Enterococcus faecium isolate 26

In the case of `CNC(C)C1CCC(N)C(OC2C(N)CC(N)C(OC3OCC(C)(O)C(NC)C3O)C2O)O1` (centres unmarked) [Gentamicin], the MIC (E. faecalis ATCC 29212) is reported as 8 µg/mL (≈ 16.8 µM), the MIC [1, 3] is reported as greater than 64 µg/mL and the MIC [1, 4] is reported as greater than 64 µg/mL. The MIC [1, 5] was 64 µg/mL (≈ 134 µM), the MIC [1, 6] was greater than 64 µg/mL and the MIC [1, 7] was greater than 64 µg/mL. The MIC [1, 8] was greater than 64 µg/mL, the MIC [1, 9] was greater than 64 µg/mL and the MIC [1, 10] was greater than 64 µg/mL. For the same compound, the MIC [1, 11] was greater than 64 µg/mL, the MIC [1, 12] was greater than 64 µg/mL and the MIC [1, 13] was greater than 64 µg/mL. For the same compound, the MIC [1, 14] was greater than 64 µg/mL, the MIC [1, 15] was greater than 64 µg/mL and the MIC [1, 16] was greater than 64 µg/mL. The MIC [1, 17] was greater than 64 µg/mL, the MIC [1, 18] was greater than 64 µg/mL and the MIC [1, 19] was greater than 64 µg/mL. For the same compound, the MIC [1, 20] was greater than 64 µg/mL, the MIC [1, 21] was greater than 64 µg/mL and the MIC [1, 22] was greater than 64 µg/mL. For the same compound, the MIC [1, 23] was greater than 64 µg/mL, the MIC [1, 24] was greater than 64 µg/mL and the MIC [1, 25] was greater than 64 µg/mL. For the same compound, the MIC [1, 26] was greater than 64 µg/mL, the MIC [1, 27] was greater than 64 µg/mL and the MIC [1, 28] was greater than 64 µg/mL. The MIC50 [1] was greater than 64 µg/mL and the MIC90 [1] was greater than 64 µg/mL.

`CC(=O)NC[C@H]1CN(c2ccc(N3CCOCC3)c(F)c2)C(=O)O1` [Linezolid] gave an MIC (E. faecalis ATCC 29212) of 2 µg/mL (≈ 5.93 µM), an MIC [1, 3] of 2 µg/mL (≈ 5.93 µM) and an MIC [1, 4] of 2 µg/mL (≈ 5.93 µM). The MIC [1, 5] was 4 µg/mL (≈ 11.9 µM), the MIC [1, 6] was 2 µg/mL (≈ 5.93 µM) and the MIC [1, 7] was 4 µg/mL (≈ 11.9 µM). It also gave an MIC [1, 8] of 4 µg/mL (≈ 11.9 µM), an MIC [1, 9] of 2 µg/mL (≈ 5.93 µM) and an MIC [1, 10] of 2 µg/mL (≈ 5.93 µM). The MIC [1, 11] was 2 µg/mL (≈ 5.93 µM), the MIC [1, 12] was 2 µg/mL (≈ 5.93 µM) and the MIC [1, 13] was 2 µg/mL (≈ 5.93 µM). The MIC [1, 14] was 4 µg/mL (≈ 11.9 µM), the MIC [1, 15] was 4 µg/mL (≈ 11.9 µM) and the MIC [1, 16] was 4 µg/mL (≈ 11.9 µM). For the same compound, the MIC [1, 17] was 4 µg/mL (≈ 11.9 µM), the MIC [1, 18] was 4 µg/mL (≈ 11.9 µM) and the MIC [1, 19] was 2 µg/mL (≈ 5.93 µM). For the same compound, the MIC [1, 20] was 4 µg/mL (≈ 11.9 µM), the MIC [1, 21] was 4 µg/mL (≈ 11.9 µM) and the MIC [1, 22] was 2 µg/mL (≈ 5.93 µM). It also gave an MIC [1, 23] of 2 µg/mL (≈ 5.93 µM), an MIC [1, 24] of 4 µg/mL (≈ 11.9 µM) and an MIC [1, 25] of 4 µg/mL (≈ 11.9 µM). For the same compound, the MIC [1, 26] was 4 µg/mL (≈ 11.9 µM), the MIC [1, 27] was 4 µg/mL (≈ 11.9 µM) and the MIC [1, 28] was 2 µg/mL (≈ 5.93 µM). For the same compound, the MIC50 [1] was 4 µg/mL (≈ 11.9 µM), the MIC90 [1] was 4 µg/mL (≈ 11.9 µM) and the “MIC Range” value [2] was 2 to 4 µg/mL.
